Values quoted from earlier work in patent publication US10822355B2, “Ultralow-power near infrared lamp light operable targeted organic nanoparticle photodynamic therapy” (University of Massachusetts, priority 2016, dated 2020).

Tests used:
[1] = for ε: at 525 nm (B-1), 630 nm (B-2), 661 nm (B-3); for ΦF (%) / ε/10^5 M^−1 cm^−1 / λabs (max) / λem (max): literature values (References S2, S6, S7)
[2] = for ΦΔ (%): literature values (References S2, S6, S7)

Row | Compound | ε [1] | ΦF (%) [1] | ε/10^5 M^−1 cm^−1 [1] | λabs (max) [1] | λem (max) [1] | ΦΔ (%) [2] | ΦΔ of reference ([2]; in dichloromethane)
1 | 2,6-diiodio-BODIPY [B-1] | 85000 M⁻¹ cm⁻¹ | 3% | 0.85 10^5 M^−1 cm^−1 | 529 | 548 | 79.5% | –
2 | 2,6-diiodiodistyl-BODIPY [B-2] | 77000 M⁻¹ cm⁻¹ | 5% | 0.77 10^5 M^−1 cm^−1 | 630 | 654 | 69.0% | –
3 | 2,6-diiodiodistyl-BODIPY [B-3] | 98000 M⁻¹ cm⁻¹ | 7% | 0.98 10^5 M^−1 cm^−1 | 661 | 689 | 61.2% | –
4 | CN(C)c1ccc2nc3ccc(=[N+](C)C)cc-3sc2c1 [methyl blue, methylene blue] | – | – | – | – | – | – | 0.52
